Experimental data taken from ChEMBL document CHEMBL5537169, “Structure-Activity Relationships and Discovery of (S)-6-Isopropyl-2-methoxy-3-(3-methoxypropoxy)-10-oxo-5,10-dihydro-6H-pyrido[1,2-h][1,7]naphthyridine-9-carboxylic Acid (AB-452), a Novel Orally Available HBV RNA Destabilizer” (J Med Chem, 2024).

Legend:
[1] = tested on: Hepatitis B virus; test: Antiviral activity against HBV infected in human HepG2.2.15 cells assessed as inhibition of HBsAg level incubated for 6 days by microplate-based chemiluminescence immunoassay; format: functional, organism-based; details: HepG2 2.2.15, 144 h
[2] = tested on: HepG2 2.2.15; test: Cytotoxicity against human HepG2.2.15 cells by Cell-titer Glo luminescent assay; format: functional
[3] = Drug accumulation in Sprague-Dawley rat liver at 10 mg/kg,po measured at 0.083 to 24 hrs post administration by LC-MS/MS analysis; format: ADME, organism-based; details: in vivo, time 0.083-24 hrs
[4] = Oral bioavailability in Sprague-Dawley rat at 10 mg/kg measured at 0.083 to 24 hrs by LC-MS/MS analysis; format: ADME, organism-based; details: in vivo, po, 10 mg/kg, time 0.083-24 hrs
[5] = Tmax in Sprague-Dawley rat at 10 mg/kg,po measured at 0.083 to 24 hrs post administration by LC-MS/MS analysis; format: ADME, organism-based; details: in vivo, po, 10 mg/kg, time 0.083-24 hrs
[6] = Tmax in CD-1 mouse at 10 mg/kg,po measured at 0.083 to 24 hrs post administration by LC-MS/MS analysis; format: ADME, organism-based; details: in vivo, time 0.083-24 hrs
[7] = Half life in Sprague-Dawley rat at 10 mg/kg,po measured at 0.083 to 24 hrs post administration by LC-MS/MS analysis; format: ADME, organism-based; details: in vivo, po, 10 mg/kg, time 0.083-24 hrs
[8] = Cmax in Sprague-Dawley rat at 10 mg/kg,po measured at 0.083 to 24 hrs post administration by LC-MS/MS analysis; format: ADME, organism-based; details: in vivo, po, 10 mg/kg, time 0.083-24 hrs
[9] = Apparent volume of distribution at steady state in CD-1 mouse at 10 mg/kg,po measured at 0.083 to 24 hrs post administration by LC-MS/MS analysis; format: ADME, organism-based; details: in vivo, time 0.083-24 hrs
[10] = Clearance in CD-1 mouse liver microsomes at 0.3 uM pre-incubated for 10 mins followed by NADPH addition incubated for 60 mins by LC-MS/MS analysis; format: ADME, Microsome; details: time 70 min, read-out: CLH
[11] = Oral bioavailability in CD-1 mouse at 10 mg/kg measured at 0.083 to 24 hrs by LC-MS/MS analysis; format: ADME, organism-based; details: in vivo, time 0.083-24 hrs
[12] = Half life in CD-1 mouse at 10 mg/kg,po measured at 0.083 to 24 hrs post administration by LC-MS/MS analysis; format: ADME, organism-based; details: in vivo, time 0.083-24 hrs
[13] = AUCinfinity in CD-1 mouse at 10 mg/kg,po measured at 0.083 to 24 hrs post administration by LC-MS/MS analysis; format: ADME, organism-based; details: in vivo, time 0.083-24 hrs
[14] = Cmax in CD-1 mouse at 10 mg/kg,po measured at 0.083 to 24 hrs post administration by LC-MS/MS analysis; format: ADME, organism-based; details: in vivo, time 0.083-24 hrs
[15] = Clearance in CD-1 mouse at 2 mg/kg,iv measured at 0.083 to 24 hrs post administration by LC-MS/MS analysis; format: ADME, organism-based; details: in vivo, time 0.083-24 hrs
[16] = AUCinfinity in Sprague-Dawley rat at 10 mg/kg,po measured at 0.083 to 24 hrs post administration by LC-MS/MS analysis; format: ADME, organism-based; details: in vivo, po, 10 mg/kg, time 0.083-24 hrs
[17] = Apparent volume of distribution at steady state in Sprague-Dawley rat at 10 mg/kg,po measured at 0.083 to 24 hrs post administration by LC-MS/MS analysis; format: ADME, organism-based; details: in vivo, time 0.083-24 hrs
[18] = Drug accumulation in CD-1 mouse liver at 10 mg/kg,po measured at 0.083 to 24 hrs post administration by LC-MS/MS analysis; format: ADME, organism-based; details: in vivo, time 0.083-24 hrs
[19] = Clearance in human liver microsomes at 0.3 uM pre-incubated for 10 mins followed by NADPH addition incubated for 60 mins by LC-MS/MS analysis; format: ADME, Microsome; details: time 70 min, read-out: CLH

Compound | EC50 [1] [µM] | CC50 [2] [µM] | microsomal CLint at 0.3 µM [10] [µL/min/mg] | further results
COc1cc2c(nc1OC)-c1cc(=O)c(C(=O)O)cn1C(C(C)C)C2 (centres undefined) | 0.014 | > 50 | – | –
COc1cc2c(nc1OC)-c1cc(=O)c(C(=O)O)cn1[C@@H](C(C)C)C2 | 0.3 | > 50 | – | –
CCc1cc2c(cc1OCCCOC)OC[C@@H](C(C)C)n1cc(C(=O)O)c(=O)cc1-2 | 0.006 | 33 | 10 | Ct [3]: 47 ng/g; F [4]: 24%; Tmax [5]: 3.3 h; Tmax [6]: 2.4 h; t1/2 [7]: 2.7 h; Cmax [8]: 351 ng/mL; Vdss(app) [9]: 1.1 L/kg; bioavailability [11]: 91%; half-life [12]: 0.8 h; AUC(0-inf) [13]: 7080 ng·h/mL; Cmax [14]: 844 ng/mL; clearance [15]: 21 mL/min/kg; AUC [16]: 2860 ng·h/mL; Vdss(app) [17]: 0.9 L/kg; Ct [18]: 5 ng/g
COCCCOc1cc2c(nc1OC)-c1cc(=O)c(C(=O)O)cn1[C@@H](C(C)C)C2 | 0.95 | > 50 | – | –
COCCCCOc1cc2c(cc1Cl)-c1cc(=O)c(C(=O)O)cn1[C@H](C(C)C)CO2 | 0.016 | 43 | 1 | –
COCc1nc2c(s1)CC(C(C)C)n1cc(C(=O)O)c(=O)cc1-2 (centres undefined) | 3 | > 50 | – | –
COc1cc2c(cc1OC)-c1cc(=O)c(C(=O)O)cn1[C@H](C(C)C)C2 | 0.0073 | – | – | –
CC(C)C1Cc2sc(Cl)cc2-c2cc(=O)c(C(=O)O)cn21 (centres undefined) | 21 | > 50 | – | –
COc1nc2c(s1)CC(C(C)C)n1cc(C(=O)O)c(=O)cc1-2 (centres undefined) | 3.8 | > 50 | – | –
CC(C)[C@@H]1COc2cc(OCC3CC3)c(Cl)cc2-c2cc(=O)c(C(=O)O)cn21 | 0.032 | 37 | 1 | –
COc1cc2c(cc1Cl)-c1cc(=O)c(C(=O)O)cn1[C@H](C(C)C)CO2 | 0.038 | > 50 | 1 | –
CC(C)[C@@H]1COc2cc(OCCCO)c(Cl)cc2-c2cc(=O)c(C(=O)O)cn21 | 0.019 | > 50 | 6 | microsomal CLint at 0.3 µM [19]: 4 µL/min/mg
COc1cc2c(cn1)-c1cc(=O)c(C(=O)O)cn1C(C(C)C)C2 (centres undefined) | 0.96 | > 50 | – | –
CC(C)C1Cc2sccc2-c2cc(=O)c(C(=O)O)cn21 (centres undefined) | 2.4 | > 50 | – | –
COCCOc1cc2c(cc1Cl)-c1cc(=O)c(C(=O)O)cn1[C@H](C(C)C)CO2 | 0.053 | > 50 | – | –
CC(C)[C@@H]1COc2cc(OCCCN3CCOCC3)c(Cl)cc2-c2cc(=O)c(C(=O)O)cn21 | 0.14 | > 50 | 1 | –
COc1ccc(-c2cc(=O)c(C(=O)O)cn2CC(C)(C)C)cc1OC | 10 | – | – | –
